Consider 1 compound from US10017585B2, “Methods and compositions for promoting hair growth” (Momenta Pharmaceuticals, Inc., priority 2010, dated 2018).

This assay concerns female BALB/c mice. The experiment in a line: Hair regrowth score in shaved mice, MONC402 in combination with chemotherapy, 27 days. It is filed as in vivo. On the procedure:
The backs of eight week old female BALB/c mice were shaved. Osmotic pumps containing either saline or MONC402 were implanted into 64 mice (32 saline, 32 MONC402). Mice were further divided into groups receiving either saline or Docetaxel (10 mg/kg) once weekly ip starting 13 days after pump implant. Additionally, there was one group of naïve mice (n=4) as well as one group of mice receiving chemotherapy alone (Docetaxel, 10 mg/kg, once weekly ip starting 6 days after pump implant, n=16) which were not subject to shaving or pump implant. Staples used to close the implantation wound were removed 7 days later. Twenty seven days after pump implant, mice were scored for hair growth over the shaved area.

[1] abbreviates: Docetaxel (10 mg/kg weekly ip) + Saline pump, 27 days.

Consider `CC(=O)O[C@@]12CO[C@@H]1C[C@H](O)[C@@]1(C)C(=O)[C@H](O)C3=C(C)[C@@H](OC(=O)[C@H](O)[C@@H](NC(=O)OC(C)(C)C)c4ccccc4)C[C@@](O)([C@@H](OC(=O)c4ccccc4)[C@H]21)C3(C)C` [Docetaxel], for which the “Number of animals scored 4: full growth (indistinguishable from unshaved)” value (Docetaxel 10 mg/kg once weekly ip alone, No shaving or pump implant) was 16/16. For the same compound, under setting [1], the “Number of animals scored 1.5” value was 1/16, the “Number of animals scored 2: light growth” value is listed as 7/16, the “Number of animals scored 2.5” value is 2/16 and the “Number of animals scored 3: patchy/heavy growth” value is recorded as 6/16.
